From patent US8383880B2, “Infertility control of genetically modified fish” (Academia Sinica, priority 2009, dated 2013)

Legend:
Tg(AS-eGFP:Ntr) = test: Fertility assessment, compound transgenic line; format: in vivo, zebrafish; conditions: Tg(AS-EGFP:Ntr) females, 5 mM Met every other day for 1 week
From the text: (§1) To generate compound transgenic lines, the homozygous transgenic zebrafish of each line, Tg(Asp-eGFP:Ntr), Tg(Odf-eGFP:Ntr), and Tg(Sam-eGFP:Ntr), were then crossed with each other to generate double transgenic fish, Tg(AO-eGFP:Ntr)[Tg(Asp-eGFP:Ntr);Tg(Odf-eGFP:Ntr)], Tg(AS-eGFP:Ntr)[Tg(Asp-eGFP:Ntr);Tg(Sam-eGFP:Ntr)], and Tg(OS-eGFP:Ntr)[Tg(Odf-eGFP:Ntr);Tg(Sam-eGFP:Ntr)] and triple-transgenic fish, Tg(AOS-eGFP:Ntr)[Tg(Asp-eGFP:Ntr; Odf-eGFP:Ntr;Sam-eGFP:Ntr)] for experiments. RT-PCR was performed to test the expression of eGFP:Ntr in the testes of all lines. Animals from each cross were divided into four groups based on genotype. The four groups were then used to assess fertility in response to Met administration.
(§2) Fertility was assessed by pairing each heterozygous transgenic fish with a WT mate. At least 20 transgenic fish were tested for each line, and the numbers of fertile zebrafish were compared with wild-type fish. Each male was assessed with multiple females. Zebrafish were labeled infertile if they were unable to produce offspring over a 4-month period.
(§3) After establishing breeding colonies of these three transgenic lines, Tg(Asp-eGFP:Ntr), Tg(Odf-eGFP:Ntr), and Tg(Sam-eGFP:Ntr), it became clear that the male transgenic fish were at intermediate levels of infertility while the female transgenic fish remained fertile after Met treatment. None of the Met-treated adult males crossed with wild-type females were fully successful in spawning fertilized eggs (Table 1). […] To reach high or full (100%) levels of male infertility in Met-treated transgenic zebrafish lines, we generated compound transgenic lines, Tg(AO-eGFP:Ntr), Tg(AS-eGFP:Ntr), Tg(OS-eGFP:Ntr), and Tg(AOS-eGFP:Ntr) by crossing each other of Tg(Asp-eGFP:Ntr), Tg(Odf-eGFP:Ntr), and Tg(Sam-eGFP:Ntr), then examined male infertility after Met treatment (Table 2). At 4 months of age, Met-treated compound transgenic males had three mediate (76.4%), intermediate high (85.7%), high (95.0%), and full (100%) levels of infertility for Tg(OS-eGFP:Ntr), Tg(AO-eGFP:Ntr), Tg(AS-eGFP:Ntr), and Tg(AOS-eGFP:Ntr), respectively. Met-treated compound transgenic females crossed with wild-type zebrafish remained fertile. No gross abnormalities were apparent in any of the Met-untreated compound transgenic zebrafish lines or Met-treated double transgenic females.

Tg(AO-eGFP:Ntr) = test: Fertility assessment, compound transgenic line; format: in vivo, zebrafish; conditions: Tg(AO-EGFP:Ntr) females, 5 mM Met every other day for 1 week
From the text: as §1, §2, §3

Tg(AOS-eGFP:Ntr) = test: Fertility assessment, compound transgenic line; format: in vivo, zebrafish
From the text: as §1, §2, §3

Tg(OS-eGFP:Ntr) = test: Fertility assessment, compound transgenic line; format: in vivo, zebrafish; conditions: Tg(OS-EGFP:Ntr) females, 5 mM Met every other day for 1 week
From the text: as §1, §2, §3

[1] = system: 14 dpf transgenic embryos; test: Metronidazole dependent cell ablation, dose response in ablating gonad; format: in vivo, zebrafish; conditions: 5 mM Met, 14 dpf larvae
Procedure: Metronidazole (Met, M3761, Sigma) was dissolved in a standard zebrafish embryo medium with vigorous agitation. Embryos were incubated at 28° C. in the dark, and 14-21 dpf transgenic embryos were used to study the dose response of Met in ablating gonad. In initial studies, 14 dpf embryos were incubated in a range of Met concentrations (1-10 mM).

Tg(Sam-eGFP:Ntr) = test: Fertility assessment; format: in vivo, zebrafish
Procedure: as §2
(§4) To assess the fertility of Met-treated transgenic zebrafish lines, Tg(Asp-eGFP:Ntr), Tg(Odf-eGFP:Ntr), and Tg(Sam-eGFP:Ntr) lines were crossed with wild-type zebrafish (100-200 eggs per line; three mating pairs per line). The reproductive parameters were compared with wild-type pairs of the same strain (100-200 eggs per five mating pairs). […] In fact, the infertility of Met-treated Tg(Asp-eGFP:Ntr) transgenic males mated with wild-type female fish increased by over 68.0% compared to that of wild-type. […] However, Met-treated transgenic female lines remained fertile as wild-type female.
as §3

Tg(Odf-eGFP:Ntr) = test: Fertility assessment; format: in vivo, zebrafish
Procedure: as §2, §4, §3

Tg(Asp-eGFP:Ntr) = test: Fertility assessment; format: in vivo, zebrafish
Procedure: as §2, §4, §3

Wild type = test: Fertility assessment; format: in vivo, zebrafish; conditions: 5 mM Met every other day for 1 week; for Female infertility, Met+: Wild type females; for Male infertility, Met+: Wild type males
Procedure: as §2, §4, §3

[2] = system: AB strain zebrafish embryos; test: Tolerable concentration of Mtz for zebrafish (consecutive immersion of embryos); format: in vivo; conditions: for larvae dead: at 5 dpf
Procedure: In order to determine the tolerable concentration of Mtz for zebrafish, AB strain zebrafish embryos at the single-cell stage were incubated at 28° C. in a range of Mtz concentrations (0-20 mM). We observed obvious abnormal development of larvae at 3 days postfertilization (dpf). The larvae were dead at 5 dpf after consecutive immersions in […] Mtz (100%, n=26/26) and 20 mM Mtz (100%, n=30/30). The nonspecific death of the larvae was first observed at 6 dpf after consecutive immersions in 10 mM Mtz (23%, n=7/30). In contrast, we observed that no larvae died after at least 10 dpf of consecutive immersion in 5 mM Mtz (0%, n=30). Therefore, the optimal Mtz concentration used in the present experiment was 5 mM.

SMILES: Cc1ncc([N+](=O)[O-])n1CCO [Mtz]
- Female infertility, Met+ (Tg(AS-eGFP:Ntr)): 0/40 (0%)
- Female infertility, Met+ (Tg(AO-eGFP:Ntr)): 0/35 (0%)
- Female infertility, Met+ (Tg(AOS-eGFP:Ntr); Tg(AOS-EGFP:Ntr) females, 5 mM Met every other day for 1 week): 0/38 (0%)
- lethality in male triple-transgenic fish (Tg(AOS-eGFP:Ntr); male Tg(AOS-eGFP:Ntr), 5 mM Met treatment for 1 week, listed as Met): occasionally died
- Female infertility, Met+ (Tg(OS-eGFP:Ntr)): 0/34 (0%)
- deleterious effects on larvae [1]: no deleterious effects
- infertility increased compared to that of wild type (Tg(Sam-eGFP:Ntr); Met-treated Tg(Sam-eGFP:Ntr) males mated with wild-type female): > 54.1%
- Female infertility, Met+ (Tg(Sam-eGFP:Ntr); Tg(Sam-EGFP:Ntr) females, 5 mM Met every other day for 1 week): 0/24 (0%)
- Male infertility, Met+ (Tg(Sam-eGFP:Ntr); Tg(Sam-EGFP:Ntr) males, 5 mM Met every other day for 1 week): 13/24 (54.1%)
- infertility increased compared to that of wild type (Tg(Odf-eGFP:Ntr); Met-treated Tg(Odf-eGFP:Ntr) males mated with wild-type female): over 59.1%
- Female infertility, Met+ (Tg(Odf-eGFP:Ntr); Tg(Odf-EGFP:Ntr) females, 5 mM Met every other day for 1 week): 0/22 (0%)
- Male infertility, Met+ (Tg(Odf-eGFP:Ntr); Tg(Odf-EGFP:Ntr) males, 5 mM Met every other day for 1 week): 13/22 (59.1%)
- infertility increased compared to that of wild-type (Tg(Asp-eGFP:Ntr); Met-treated Tg(Asp-eGFP:Ntr) males mated with wild-type female): over 68.0%
- Female infertility, Met+ (Tg(Asp-eGFP:Ntr); Tg(Asp-EGFP:Ntr) females, 5 mM Met every other day for 1 week): 0/25 (0%)
- Male infertility, Met+ (Tg(Asp-eGFP:Ntr); Tg(Asp-EGFP:Ntr) males, 5 mM Met every other day for 1 week): 17/25 (68.0%)
- Female infertility, Met+ (Wild type; Table 1 (n=28)): 0/28 (0%)
- Female infertility, Met+ (Wild type; Table 2 (n=30)): 0/30 (0%)
- Male infertility, Met+ (Wild type; Table 1 (n=28)): 0/28 (0%)
- Male infertility, Met+ (Wild type; Table 2 (n=30)): 0/30 (0%)
- larvae dead ([2]; 15 nM Mtz, n=26/26): 100%
- larvae died ([2]; 5 mM Mtz, at least 10 dpf, n=30): 0%
- nonspecific death of the larvae ([2]; 10 mM Mtz, first observed at 6 dpf, n=7/30): 23%
- larvae dead ([2]; 20 mM Mtz, n=30/30): 100%
